Patent US20150126464A1, “THERAPEUTIC DRUG AND THERAPEUTIC METHOD FOR NEUROLOGICAL DISEASES INCLUDING ALZHEIMER'S DISEASE ASSOCIATED WITH 1,25D3-MARRS” (priority 2013, published 2015)
Counter-ions that a name gives are not always drawn.

How the values were obtained:
[1] = tested on: rat cortical neurons (SD E18); experiment: Measurement of axon density in cortical neurons with or without 1,25D3-MARRS knockdown; details: 1 μM, 4 days, vs vehicle; for density of pNF-H-positive axons per MAP2-positive neuron, control groups: control (no 1,25D3-MARRS knockdown) cortical neurons; for density of pNF-H-positive axons per MAP2-positive neuron, 1,25D3-MARRS knockdown groups: neurons transfected with siRNA for 1,25D3-MARRS (400 nM)
Source text: siRNAs were transfected into rat cortical neurons (SD E18) according to the manufacturer's protocol for nucleofection (Lonza, Bazel, Switzerland). […] Two days after the transfection, the cells were fixed and double-immunostained with a monoclonal antibody against a neuron marker MAP2a/2b (1:500, NeoMarker, Fremont, Calif., USA) and Ab099 clone, a specific antibody for 1,25D3-MARRS (1:500, provided by Dr. Nemere).
Twelve to fourteen images were captured. The lengths of the pNF-H-positive axons were measured using an image analyzer Neurocyte (Kurabo), which automatically traces and measures neurite length without measuring the cell bodies. The sum of the axon lengths was divided by the number of MAP2-positive neurons.
1,25D3-MARRS was knocked down using siRNA transfection. […] Two days after the siRNA transfection, denosomin (1 μM) or a vehicle solution was applied to the cells. Further, after 4-day incubation, the cells were double-immunostained for pNF-H and MAP2 to measure the axonal length per neuron.

[2] = Body weight during dioscin administration; format: in vivo, mouse
Method: (§1) Dioscin in an amount of 30 μmol/kg/day was orally administered to normal mice (ddY mice, male, 6 weeks old) for 4 days. Dioscin (Chromadex, Irvine, Calif., USA) was dissolved in ethanol at 10 times the final concentration to give a stock solution, and the stock solution was diluted in a 5% aqueous solution of glucose to the final concentration. One hour after the last administration, the mice were used in the test.
Dioscin (30 μmol/kg/day) was orally administered to 5XFAD mice (male, 20 weeks old) for 6 days. One hour after the last administration, the training session was initiated.

5XFAD mice [3] = experiment: Novel object recognition test in 5XFAD mice (Alzheimer's disease model); format: in vivo, mouse
Source text: Transgenic mice (5XFAD) as an animal model of AD were obtained from the Jackson Laboratory (Bar Harbor, Me., USA). The 5XFAD mice overexpress human APP695 cDNA having Swedish mutation (K670N and M671L), Florida mutation (I716V) and London mutation (V717I) and human PS1 cDNA (M146L and L286V) under the transcriptional control of the neuron-specific mouse Thy-1 promoter (Oakley, H. et al., J Neurosci, 26, 10129-10140, 2006). They were maintained by crossing hemizygous transgenic mice with B6/SJL F1 breeders.
To investigate the effect of diosgenin on 5XFAD, hemizygous 5XFAD mice (female, 6 to 8 months old) and non-transgenic littermate wild-type mice (female, 6 to 8 months old) were used. These mice were obtained by crossing hemizygous 5XFAD mice and B6/SJL F1 mice. All mice were housed with free access to food and water and were kept in a controlled environment (22±2° C., 50±5% humidity, 12-h light/dark cycle starting at 7:00 am).
Diosgenin was dissolved in dimethyl sulfoxide (DMSO) at 10 times the final concentration to give a stock solution. The stock solution was diluted in physiological saline to the final concentration immediately before treatment. The diosgenin solution was intraperitoneally administered to 5XFAD mice once a day (10 μmol/kg=4.14 mg/kg) for 20 days. On the last day of administration (Day 20), each mouse was housed in a separate open-field box made of polyvinyl chloride (33 cm×[…]; height: 26.5 cm) and habituated to the environment for 10 min. […]
For each mouse of Example 1, Comparative Examples 1 and 2, and Reference Example 1, the path during the 10-minute habituation was tracked using a digital camera system. The distance each mouse traveled during the 10 minutes was analyzed as locomotion activity with EthoVision 3.0 (Noldus, Wageningen, The Netherlands). […] In the present invention, the ratio (%) of the exploration time for the novel object to the total exploration time was calculated as an exploration preferential index. […]

normal mice = experiment: Novel object recognition test in normal mice; format: in vivo, mouse; details: normal ddY mice, dioscin 30 μmol/kg/day orally 4 days
Method: Diosgenin (Wako Pure Chemical Industries, Ltd., Osaka, Japan) was dissolved in ethanol at 10 times the final concentration to give a stock solution, and the stock solution was diluted in a 5% aqueous solution of glucose to the final concentration. The diosgenin solution was intraperitoneally administered to normal mice (ddY mice, male, 6 weeks old) once a day (10 μmol/kg/day) for 5 or 6 days. One hour after the last administration, each mouse was housed in a separate open-field box made of polyvinyl chloride (33 cm×28 cm; height: 26.5 cm), habituated to the environment for 10 minutes, and used in the test.
Using the mice of Example 8 and Comparative Example 11, a novel object recognition test was performed to evaluate the object recognition memory. Testing was carried out in a dimly illuminated room (100 lux). The test was performed as described in Joyashiki, E. et sl., Int J Neurosci, 121, 181-190, 2011 and Tohda, C. et al., Int J Neurosci, 121, 641-648, 2011, written by the inventors and others, except that the time interval between a training session and a test session was 48 hours. As a locomotion index, the path of each mouse was tracked using a digital camera system. The distance each mouse traveled during the 10 minutes was analyzed as locomotion activity with EthoVision 3.0 (Noldus, Wageningen, The Netherlands).
The diosgenin solution was intraperitoneally administered to normal mice (C57BL/6, male, 8 weeks old) (100 μmol/kg/day) for 14 days. On the day after the 14th administration, the mice were used in the test.
Using the mice of Example 9 and Comparative Example 12, the novel object recognition test was performed. The test was performed under the conditions as described above.
as §1, with “One hour after the last administration, the mice were used in the test.” left out

5XFAD mice [4] = experiment: Immunohistochemistry of brain slices of 5XFAD mice (amyloid plaques, PHF-tau, abnormal axons, presynapses); format: in vivo, mouse; details: vs vehicle-treated 5XFAD, diosgenin 10 μmol/kg, memantine hydrochloride 200 μmol/kg/day i.p. 20 days
Method: One day after the novel object recognition test, the mice were anesthetized and transcardially perfused with cold physiological saline. The brains were carefully removed from the skull, immediately immersed in 10 to 30% sucrose-PBS and stored at -80° C. The brains were cut in 20-μm successive coronal slices every 100 μm in the parietal area (bregma 1.4-2 mm) sections using a cryostat (C[…], Leica, Heidelberg, Germany). The slices were fixed with 4% paraformaldehyde and stained with a polyclonal antibody against Aβ (1-40/42) (1:300) (Chemicon, Temecula, Calif., USA), a monoclonal antibody against pNF-H (1:500) (Covance, Emeryville, Calif., USA), a monoclonal antibody against synaptophysin (1:500) (Sigma-Aldrich), and a monoclonal antibody against PHF-tau (Thermo Scientific, Rockford, Ill., USA) at 4° C. for 20 hours. […] Three successive brain slices of the frontal cortex and five successive slices of the hippocampus were captured from a mouse for quantification. Extracellular amyloid plaques were determined by the size (greater than 50 μm in width), and the area of amyloid plaques was measured using the image analyzing software ImageJ. The area of the pNF-H-positive abnormal bulb-like axons was measured using ImageJ for every amyloid plaque in the fluorescent images (324 μm×430 μm). The areas of the synaptophysin-positive presynaptic boutons in every amyloid plaque were measured in fluorescent images (324 μm×430 μm) using Image J. The areas of PHF-tau in every amyloid plaque and outer amyloid plaques were measured in fluorescent images (324 μm×430 μm) using ImageJ.

C=C1/C(=C\C=C2/CCC[C@]3(C)[C@@H]([C@H](C)CCCC(C)(C)O)CC[C@@H]23)C[C@@H](O)C[C@@H]1O [DHVD3, 1α,25-dihydroxy vitamin D3, reference compound]
density of pNF-H-positive axons per MAP2-positive neuron, control groups [1]: significantly increased
density of pNF-H-positive axons per MAP2-positive neuron, 1,25D3-MARRS knockdown groups [1]: did not show any difference

C[C@@H]([C@H]1CC[C@H]2[C@@H]3CC=C4C[C@@H](O)CC[C@]4(C)[C@H]3CC[C@]12C)[C@H]1CC=C(CO)C(=O)O1 [denosomin]
density of pNF-H-positive axons per MAP2-positive neuron, control groups [1]: significantly increased
density of pNF-H-positive axons per MAP2-positive neuron, 1,25D3-MARRS knockdown groups [1]: almost completely inhibited

C[C@@H]1CC[C@@]2(OC1)O[C@H]1C[C@H]3[C@@H]4CC=C5C[C@@H](O[C@@H]6O[C@H](CO)[C@@H](O[C@@H]7O[C@@H](C)[C@H](O)[C@@H](O)[C@H]7O)[C@H](O)[C@H]6O[C@@H]6O[C@@H](C)[C@H](O)[C@@H](O)[C@H]6O)CC[C@]5(C)[C@H]4CC[C@]3(C)[C@H]1[C@@H]2C [dioscin]
body weight ([2]; 5XFAD mice, dioscin 30 μmol/kg/day orally 6 days): None of the groups showed marked change
transition of body weight ([2]; normal ddY mice, dioscin 30 μmol/kg/day orally 4 days): no significant difference
behavior index of exploratory behavior for the novel object (5XFAD mice [3]; dioscin 30 μmol/kg/day orally 6 days, one hour training-test interval): higher than 50%
behavior index of exploratory behavior for the novel object (normal mice): higher than 50%

CC12CC3CC(C)(C1)CC(N)(C3)C2 [memantine, Memantine hydrochloride, reference compound]
area of abnormal axons (swollen axon area) per amyloid plaque in the cerebral cortex (5XFAD mice [4]): not significantly reduced
area of abnormal axons (swollen axon area) per amyloid plaque in the hippocampus (5XFAD mice [4]): inversely significantly increased
total area of PHF-tau in the cerebral cortex (5XFAD mice [4]): not significantly different
total area of PHF-tau in the hippocampus (5XFAD mice [4]): inversely significantly increased
total area of amyloid plaques in the hippocampus (5XFAD mice [4]): significantly reduced in the hippocampus
novel object preferential index (exploration preferential index), test session (5XFAD mice [3]; i.p. once a day for 20 days, diosgenin 10 μmol/kg, memantine hydrochloride 200 μmol/kg/day, 30 min training-test interval): 50%
